Laboratory results: the NIST ThermoML archive (doi:10.1016/j.fluid.2012.05.007)
Numbers after ± are expanded uncertainties.

Key:
[1] = wn = mass fraction of the nth substance listed; conditions: for viscosity / mass density: 101 kPa, Liquid; for viscosity: Capillary tube (Ostwald / Ubbelohde) method; for mass density: Pycnometric method; for surface tension liquid-gas: Pendant drop shape
[2] = mn = molality of the nth substance listed, in mol/kg; conditions: for surface tension liquid-gas: Pendant drop shape; for viscosity / mass density: 101 kPa, Liquid; for viscosity: Capillary tube (Ostwald / Ubbelohde) method; for mass density: Pycnometric method
[3] = 288.15 K

Compound: CN(CCO)CCO [N-methyldiethanolamine] + O
- viscosity ([1]; 288.15 K, w1 = 0.1): 1.711 ± 0.02 mPa·s
- viscosity ([1]; 288.15 K, w1 = 0.2): 2.631 ± 0.03 mPa·s
- mass density ([1]; 288.15 K, w1 = 0.1): 1007.1 ± 1 kg/m3
- mass density ([1]; 288.15 K, w1 = 0.2): 1017.5 ± 1 kg/m3
- surface tension liquid-gas ([1]; 313.15 K, w1 = 0.1): 58.71 ± 2.1 mN/m
- surface tension liquid-gas ([1]; 313.15 K, w1 = 0.2): 54.68 ± 1.9 mN/m
- viscosity ([1]; 313.15 K, w1 = 0.1): 0.905 ± 0.011 mPa·s
- viscosity ([1]; 313.15 K, w1 = 0.2): 1.312 ± 0.016 mPa·s
- mass density ([1]; 313.15 K, w1 = 0.1): 1001.1 ± 1 kg/m3
- mass density ([1]; 313.15 K, w1 = 0.2): 1008.1 ± 1 kg/m3

Compound: O=C([O-])CC(O)(CC(=O)[O-])C(=O)[O-].[K+].[K+].[K+] [potassium citrate] + O
- surface tension liquid-gas ([2]; 293.15 K, m1 = 0.45): 71.49 ± 2.5 mN/m
- surface tension liquid-gas ([2]; 293.15 K, m1 = 0.83): 75.75 ± 2.6 mN/m
- surface tension liquid-gas ([2]; 293.15 K, m1 = 1.16): 79.08 ± 2.8 mN/m
- surface tension liquid-gas ([2]; 293.15 K, m1 = 1.48): 81.1 ± 2.8 mN/m
- viscosity ([2]; 293.15 K, m1 = 0.45): 1.342 ± 0.016 mPa·s
- viscosity ([2]; 293.15 K, m1 = 0.83): 1.891 ± 0.022 mPa·s
- viscosity ([2]; 293.15 K, m1 = 1.16): 2.933 ± 0.035 mPa·s
- viscosity ([2]; 293.15 K, m1 = 1.48): 4.989 ± 0.058 mPa·s
- mass density ([2]; 293.15 K, m1 = 0.45): 1117.7 ± 1.2 kg/m3
- mass density ([2]; 293.15 K, m1 = 0.83): 1201.1 ± 1.3 kg/m3
- mass density ([2]; 293.15 K, m1 = 1.16): 1294.6 ± 1.4 kg/m3
- mass density ([2]; 293.15 K, m1 = 1.48): 1355.7 ± 1.4 kg/m3
- viscosity ([2]; 303.15 K, m1 = 0.45): 1.05 ± 0.012 mPa·s
- viscosity ([2]; 303.15 K, m1 = 0.83): 1.448 ± 0.017 mPa·s
- viscosity ([2]; 303.15 K, m1 = 1.16): 2.205 ± 0.026 mPa·s
- viscosity ([2]; 303.15 K, m1 = 1.48): 3.56 ± 0.042 mPa·s
- mass density ([2]; 303.15 K, m1 = 0.45): 1112.9 ± 1.2 kg/m3
- mass density ([2]; 303.15 K, m1 = 0.83): 1197.2 ± 1.3 kg/m3
- mass density ([2]; 303.15 K, m1 = 1.16): 1282.5 ± 1.4 kg/m3
- mass density ([2]; 303.15 K, m1 = 1.48): 1343.2 ± 1.4 kg/m3
- viscosity ([2]; 313.15 K, m1 = 0.45): 0.845 ± 0.01 mPa·s
- viscosity ([2]; 313.15 K, m1 = 0.83): 1.127 ± 0.013 mPa·s
- viscosity ([2]; 313.15 K, m1 = 1.16): 1.644 ± 0.019 mPa·s
- viscosity ([2]; 313.15 K, m1 = 1.48): 2.597 ± 0.031 mPa·s
- mass density ([2]; 313.15 K, m1 = 0.45): 1107.8 ± 1.2 kg/m3
- mass density ([2]; 313.15 K, m1 = 0.83): 1193.4 ± 1.3 kg/m3
- mass density ([2]; 313.15 K, m1 = 1.16): 1274.6 ± 1.4 kg/m3
- mass density ([2]; 313.15 K, m1 = 1.48): 1331.9 ± 1.4 kg/m3
- viscosity ([2]; 323.15 K, m1 = 0.45): 0.695 ± 0.008 mPa·s
- viscosity ([2]; 323.15 K, m1 = 0.83): 0.925 ± 0.011 mPa·s
- viscosity ([2]; 323.15 K, m1 = 1.16): 1.291 ± 0.015 mPa·s
- viscosity ([2]; 323.15 K, m1 = 1.48): 1.986 ± 0.024 mPa·s
- mass density ([2]; 323.15 K, m1 = 0.45): 1104.3 ± 1.2 kg/m3
- mass density ([2]; 323.15 K, m1 = 0.83): 1190.3 ± 1.3 kg/m3
- mass density ([2]; 323.15 K, m1 = 1.16): 1263.7 ± 1.4 kg/m3
- mass density ([2]; 323.15 K, m1 = 1.48): 1322.8 ± 1.4 kg/m3

Compound: O [water]
- surface tension liquid-gas ([3]; Pendant drop shape): 75.16 ± 2.6 mN/m
- viscosity ([3]; 101 kPa, Liquid, Capillary tube (Ostwald / Ubbelohde) method): 1.144 ± 0.013 mPa·s
